The target in test [1] is PARP-1 (poly[ADP-ribose] polymerase 1) enzyme (Homo sapiens (Human), UniProt P09874). As to the kind of experiment: PARP-1 (poly[ADP-ribose] polymerase 1) enzyme inhibitory ability, Trevigen assay kit. It is filed as biochemical. The settings on record: for IC50: PARP-1 enzyme activity; for inhibition at 0.001 µM: 1 nM compound, read-out: PAR P-1 Inhibitory ability at 1 nM. Put shortly: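 Human PARP-1 activity was measured with a Trevigen assay kit in histone-coated 96-well plates rehydrated with 50 μL of 1×PARP buffer for 30 minutes. Enzyme (0.5 unit/well) and compound were preincubated 10 minutes at room temperature, then 25 μL of 1×PARP cocktail with biotinylated NAD and activated DNA was added for 1 hour.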
Chain of PARP-1 (poly[ADP-ribose] polymerase 1) enzyme (P09874 whole entry): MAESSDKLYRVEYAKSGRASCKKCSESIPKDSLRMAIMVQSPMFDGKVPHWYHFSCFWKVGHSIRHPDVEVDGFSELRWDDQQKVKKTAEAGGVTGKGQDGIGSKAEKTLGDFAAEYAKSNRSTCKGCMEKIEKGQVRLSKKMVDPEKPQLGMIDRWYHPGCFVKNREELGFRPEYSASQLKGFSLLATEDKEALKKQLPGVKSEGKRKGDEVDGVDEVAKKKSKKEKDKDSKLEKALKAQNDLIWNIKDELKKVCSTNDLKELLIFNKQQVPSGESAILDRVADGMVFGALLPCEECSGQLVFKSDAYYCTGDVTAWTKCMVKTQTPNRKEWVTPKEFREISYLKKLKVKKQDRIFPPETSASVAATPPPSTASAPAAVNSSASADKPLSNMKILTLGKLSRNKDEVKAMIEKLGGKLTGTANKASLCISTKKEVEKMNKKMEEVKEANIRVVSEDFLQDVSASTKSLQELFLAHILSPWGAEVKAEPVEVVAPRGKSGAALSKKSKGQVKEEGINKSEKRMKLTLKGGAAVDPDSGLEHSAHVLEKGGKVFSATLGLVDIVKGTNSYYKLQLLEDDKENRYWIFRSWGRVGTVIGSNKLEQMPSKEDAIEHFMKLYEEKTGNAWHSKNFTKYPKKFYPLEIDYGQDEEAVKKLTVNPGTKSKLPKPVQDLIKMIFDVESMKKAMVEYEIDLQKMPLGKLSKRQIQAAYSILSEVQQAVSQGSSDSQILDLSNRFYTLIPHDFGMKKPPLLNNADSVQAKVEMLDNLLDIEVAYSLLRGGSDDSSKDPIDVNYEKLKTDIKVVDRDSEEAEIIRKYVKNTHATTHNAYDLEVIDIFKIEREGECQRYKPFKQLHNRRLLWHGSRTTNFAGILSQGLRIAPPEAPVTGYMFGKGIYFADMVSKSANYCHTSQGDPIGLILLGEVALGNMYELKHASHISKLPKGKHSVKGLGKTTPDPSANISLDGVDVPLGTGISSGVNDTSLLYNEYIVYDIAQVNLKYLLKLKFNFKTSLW

The subject of test [2] is rat model for dry macular degeneration (sodium iodate). As to the kind of experiment: Retinal layer protection of rats in sodium iodate model for dry macular degeneration. It is filed as in vivo. The following applies: 8-week-old rats, SI 50 mg/kg i.p., compound single intraperitoneal injection 15 mg/kg, H&E. As for the experimental part: In order to evaluate the inhibitory effect (protective effect) of the compounds according to the present invention on reducing the thickness of the retinal layer of rats in dry macular degeneration-like cells, the following experiment was performed.
Specifically, 8-week-old rats were intraperitoneally injected with 50 mg/kg of sodium iodate (SI) to degenerate the retinal pigment epithelium and the photoreceptor cell layer to create a simulated animal model for dry macular degeneration. Retinal degeneration was observed 1 week after SI administration.
After a single intraperitoneal injection of Example 46 or Example 1 at a concentration of 15 mg/kg to the rat model for dry macular degeneration, the inhibitory effect (protective effect) on reducing the thickness of the retinal layer of the rats was evaluated.
In order to quantify the reduction of retinal thickness, the eyes extracted from the rats were fixed in a 4% glutaraldehyde solution for 3 hours and then embedded with paraffin. After preparing 5 μm-thick tissue fragments, the fragments were stained with a hematoxylin-eosin (H&E) solution and photographed with an optical microscope to measure the thickness of the retinal outer nuclear layer (ONL) of the retina. As a result, the thickness (μm) of the retinal ONL of the control group was calculated and expressed as 100% (n=3 times). […]

The test system of test [3] is ARPE-19 cells. As to the kind of experiment: Retinal pigment epithelial cell line protection, H2O2-induced apoptosis, MTS activity assay. Type of test: cell-based, human. The settings on record: 0.5 mM H2O2, 6 hours. Here is the method: In order to evaluate the protective effect of the compounds according to the present invention on the retinal pigment epithelial cell line under the condition of inducing dry macular degeneration-like apoptosis, the following experiment was performed.
Specifically, ARPE-19 cells, which is a human retinal pigment epithelial cell line, were cultured in DMEM:F12 (Dulbecco's Modified Eagle's Medium: Ham's nutrient mixture F-12) containing 10% fetal bovine serum (FBS) and 1% penicillin/streptomycin. The cells were aliquoted in a well plate so that the number of cells per well was 1×10^4, and incubated in a 37° C. CO2 incubator for 12 hours. DMSO (0.1%) (control group) alone or various concentrations of the compounds of Examples 1 to 276 according to the present invention (experimental groups) were treated in a medium mixed with 0.5 mM H2O2 (control group), and then, the cells were further cultured in a 37° C. CO2 incubator for 6 hours to induce apoptosis.
The degree of apoptosis was measured by an MTS (3-(4,5-dimethylthiazol-2-yl)-5-(3-carboxymethoxyphenyl)-2-(4-sulfophenyl)-2H-tetrazolium) activity assay method manufactured by Promega, the cell MTS activity level in the normal medium condition was set to 100%, and the relative degree of cell protection was converted and determined based on the MTS activity level of the control group in the 0.5 mM H2O2 treatment condition.
The MTS activity assay evaluation method is a method of measuring the activity of NADH dehydrogenase in mitochondria in cells, and MTS is reduced by NADH dehydrogenase to form colored formazan. Through this method, live cells can be quantified, and cell proliferation and apoptosis can be quantified. After the above-mentioned damage stimulus was treated to the retinal pigment epithelial cell line, 15 μL of MTS activity assay kit manufactured by Promega was added to each well, and then reacted in a 37° C. CO2 incubator for 2 hours. The reacted wells were quantified by measuring the absorbance at 450 nm using a microplate reader Victor 3 manufactured by PerkinElmer, Inc., and the results are shown in Table 4 below.

Molecules are shown by their SMILES.

On to `N#Cc1ccc(N2CCN(CCCc3cc4cccc(F)c4c(=O)[nH]3)CC2)cc1` [Example 1, 4-(4-(3-(8-fluoro-1-oxo-1,2-dihydroisoquinolin-3-yl)propyl)piperazin-1-yl)benzonitrile], for which, in test [1], half-maximal inhibition (IC50) was put at 2.3 nM. In addition, the “protection of retinal outer nuclear layer (ONL) thickness” value in test [2] is “the retina was protected”.

Turning to `N#Cc1ccc(C2=CCN(CCCc3cc4cccc(F)c4c(=O)[nH]3)CC2)nc1` [Example 46, 1′-(3-(8-fluoro-1-oxo-1,2-dihydroisoquinolin-3-yl)propyl)-1′,2′,3′,6′-tetrahydro-[2,4′-bipyridine]-5-carbonitrile], in test [1], the inhibition at 0.001 µM lay within 50 to 80% and the IC50 worked out at 1.66 nM. Further, the “protection of retinal outer nuclear layer (ONL) thickness” value in test [2] is on record as “the retina was protected”.

Consider `N#Cc1ccc(C2=CCN(C(=O)CCc3cc4cccc(F)c4c(=O)[nH]3)CC2)nc1` [Example 88, 1′-(3-(8-fluoro-1-oxo-1,2-dihydroisoquinolin-3-yl)propanoyl)-1′,2′,3′,6′-tetrahydro-[2,4′-bipyridine]-5-carbonitrile], for which the inhibition at 0.001 µM in test [1] was less than 50%. In test [3] (Homo sapiens, ARPE-19, 6 h), this compound returned an EC50 of 629 nM.

As for `Cc1cc(F)cc2c(=O)[nH]c(CCC(=O)N3CC=C(c4ccc(C#N)cn4)CC3)cc12` [Example 165, 1′-(3-(7-fluoro-5-methyl-1-oxo-1,2-dihydroisoquinolin-3-yl)propanoyl)-1′,2′,3′,6′-tetrahydro-[2,4′-bipyridine]-5-carbonitrile], the inhibition at 0.001 µM in test [1] is less than 50%. For the same compound, the concentration for a half-maximal effect (EC50) is 108 nM in test [3] and less than 150 nM in test [3] (Homo sapiens, ARPE-19, 6 h).

For the compound `O=c1[nH]c(CCCN2C3CCC2CN(c2ccc(Cl)cc2)C3)cc2ncccc12` [Example 228, 7-(3-(3-(4-chlorophenyl)-3,8-diazabicyclo[3.2.1]octan-8-yl)propyl)-1,6-naphthyridin-5(6H)-one], the inhibition at 0.001 µM in test [1] was in the range of 50 to 80%. For the same compound, the EC50 is 144 nM in test [3] and less than 150 nM in test [3] (Homo sapiens, ARPE-19, 6 h).

The values are drawn from patent US12459899B2, “Isoquinolinone derivatives, method for preparing the same, and pharmaceutical composition for preventing or treating poly(ADP-ribose) polymerase-1-related diseases, comprising the same as active ingredient” (DIGMBIO. INC., priority 2019, dated 2025).
